Assay results: ChEMBL document CHEMBL5032508, “Synthesis of Fluorescent Probes Targeting Tumor-Suppressor Protein FHIT and Identification of Apoptosis-Inducing FHIT Inhibitors” (J Med Chem, 2021)
Calls of active or inactive are those of the source. The rule behind the calls is not given here.

Columns and labels:
[1] = target: Bis(5'-adenosyl)-triphosphatase (Homo sapiens) (UniProt P49789); assay: Inhibition of recombinant human FHIT at 10 uM incubated for 1 hr by fluorescence based analysis relative to control
HCC827-Luc [2] = assay: Induction of apoptosis in human HCC827-Luc cells expressing FHIT cocultured with human NCI-H460-Luc cells assessed as PI-positive cells at 10 uM incubated for 12 hrs by calcein AM/Hoechst/PI staining based confocal fluorescence microscopic analysis; type: functional, cell-based
HCC827-Luc [3] = assay: Induction of apoptosis in human HCC827-Luc cells expressing FHIT assessed as reduction in cell viability measured after 24 hrs by CCK-8 assay; type: functional, cell-based
HCC827-Luc [4] = assay: Induction of apoptosis in human HCC827-Luc cells assessed as increase in caspase 3/7 activity at 10 uM measured after 24 hrs by confocal fluorescence microscopic analysis; type: functional, cell-based
[5] = target: Bis(5'-adenosyl)-triphosphatase (Homo sapiens) (UniProt P49789); assay: Noncompetitive inhibition of human recombinant FHIT assessed as reduction in hydrolysis of TG-CMP at 1 to 9 uM measured for 30 mins by Lineweaver-Burk plot analysis; conditions: dose 1-9 µM
NCI-H460-Luc [6] = assay: Induction of apoptosis in human NCI-H460-Luc cells weakly expressing FHIT assessed as reduction in cell viability measured after 24 hrs by CCK-8 assay; type: functional, cell-based
NCI-H460-Luc [7] = assay: Induction of apoptosis in human NCI-H460-Luc cells weakly expressing FHIT cocultured with human HCC827-Luc cells assessed as PI-positive cells at 10 uM incubated for 12 hrs by calcein AM/Hoechst/PI staining based confocal fluorescence microscopic analysis; type: functional, cell-based
HCC827-Luc [8] = assay: Induction of caspase-mediated apoptosis in human HCC827-Luc cells assessed as reduction in cell viability pretreated with caspase inhibitor Z-VAD-fmk for 1 hr followed by compound addition and measured after 72 hrs by CCK-8 assay; type: functional, cell-based
[9] = target: Bis(5'-adenosyl)-triphosphatase (Homo sapiens) (UniProt P49789); assay: Inhibition of recombinant human FHIT at 100 uM incubated for 1 hr by fluorescence based analysis relative to control
[10] = target: Bis(5'-adenosyl)-triphosphatase (Homo sapiens) (UniProt P49789); assay: Inhibition of recombinant human FHIT assessed as reduction in AP3Aase activity at 50 uM measured after 45 mins by HPLC analysis relative to control
HCC827-Luc [11] = assay: Induction of apoptosis in human HCC827-Luc cells assessed as increase in caspase 3/7 activity at 1 uM measured after 24 hrs by confocal fluorescence microscopic analysis; type: functional, cell-based
[12] = test system: COc1ccc(-c2c3ccc(=O)cc-3oc3cc(OCOP(=O)(O)OC[C@H]4O[C@@H](n5ccc(N)nc5=O)[C@H](O)[C@@H]4O)ccc23)c(C)c1; assay: Substrate activity at human recombinant FHIT assessed as Kcat by Michaelis-Menten analysis
[13] = test system: COc1ccc(-c2c3ccc(=O)cc-3oc3cc(OCOP(=O)(O)OC[C@H]4O[C@@H](n5cnc6c(=O)[nH]c(N)nc65)[C@H](O)[C@@H]4O)ccc23)c(C)c1; assay: (§1) Substrate activity at human recombinant FHIT assessed as Kcat/Km by Michaelis-Menten analysis
[14] = test system: COc1ccc(-c2c3ccc(=O)cc-3oc3cc(OCOP(=O)(O)OC[C@H]4O[C@@H](n5ccc(=O)[nH]c5=O)[C@H](O)[C@@H]4O)ccc23)c(C)c1; assay: as §1
[15] = test system: COc1ccc(-c2c3ccc(=O)cc-3oc3cc(OCOP(=O)(O)OC[C@H]4O[C@@H](n5ccc(N)nc5=O)[C@H](O)[C@@H]4O)ccc23)c(C)c1; assay: as §1
[16] = test system: COc1ccc(-c2c3ccc(=O)cc-3oc3cc(OCOP(=O)(O)OC[C@H]4O[C@@H](n5cnc6c(N)ncnc65)[C@H](O)[C@@H]4O)ccc23)c(C)c1; assay: as §1
[17] = test system: COc1ccc(-c2c3ccc(=O)cc-3oc3cc(OCOP(=O)(O)OC[C@H]4O[C@@H](n5ccc(N)nc5=O)[C@H](O)[C@@H]4O)ccc23)c(C)c1; assay: Substrate activity at human recombinant FHIT assessed as Km by Michaelis-Menten analysis

Sequence of Bis(5'-adenosyl)-triphosphatase (Homo sapiens) (P49789 whole entry, looked up): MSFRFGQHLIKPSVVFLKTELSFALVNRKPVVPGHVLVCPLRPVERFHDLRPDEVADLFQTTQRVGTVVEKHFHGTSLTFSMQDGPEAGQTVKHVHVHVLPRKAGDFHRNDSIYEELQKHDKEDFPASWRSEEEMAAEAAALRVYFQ
Sequence of Bis(5'-adenosyl)-triphosphatase (Homo sapiens), P49789 (P49789 whole entry): as the sequence (P49789 whole entry, looked up) above

In the case of `NNC(=O)c1nn(-c2ccccc2)c(=O)cc1O`, the inhibition [1] is reported as greater than 80%.

In the case of `Cc1c(OCC(=O)NO)ccc2c3c(c(=O)oc12)CCCC3`, the Activity (HCC827-Luc [2]) is reported as “Active”, the Activity (HCC827-Luc [3]) is reported as “Active” and the Activity (HCC827-Luc [4]) is reported as “Active”. For the same molecule, the inhibition [5] was “Active”, the Activity (NCI-H460-Luc [6]) was “Active” and the Activity (NCI-H460-Luc [7]) was “inactive”. The Activity (HCC827-Luc [8]) was “inactive”.

`Nc1ncnc2c1ncn2[C@@H]1O[C@H](COP(=O)(O)OP(=O)(O)OP(=O)(O)OP(=O)(O)OC[C@H]2O[C@@H](n3cnc4c(N)ncnc43)[C@H](O)[C@@H]2O)[C@@H](O)[C@H]1O` gave an inhibition [9] greater than 50%.

For `Cc1c(OCC(=O)O)ccc2c3c(c(=O)oc12)CCCC3`, the Activity (HCC827-Luc [3]) was “inactive” and the Activity (NCI-H460-Luc [6]) was “inactive”.

For `Cc1c(OCc2nn[nH]n2)ccc2c3c(c(=O)oc12)CCC(C)C3` (stereo not given), the inhibition [1] was greater than 80% and the inhibition [10] was 76%.

For `CN[C@@H]1C[C@H]2O[C@@](C)([C@@H]1OC)n1c3ccccc3c3c4c(c5c6ccccc6n2c5c31)C(=O)NC4`, the Activity (HCC827-Luc [11]) was “inactive”.

Work on `COCC(=O)N1CC[C@@H]2[C@H]1C(=O)NC[C@H](CCC(=O)OC)N2C` yielded an inhibition [1] greater than 80%.

In the case of `Nc1ncnc2c1ncn2[C@@H]1O[C@H](COP(=O)(O)OP(=O)(O)OP(=O)(O)OC[C@H]2O[C@@H](n3cnc4c(N)ncnc43)[C@H](O)[C@@H]2O)[C@@H](O)[C@H]1O`, the inhibition [9] is reported as greater than 50%.

In the case of “Bis(5'-adenosyl)-triphosphatase (Homo sapiens), P49789”, the kcat [12] is reported as 0.35 s⁻¹, the kcat/Km [13] is reported as 967 M⁻¹ s⁻¹ and the kcat/Km [14] is reported as 1830 M⁻¹ s⁻¹. It also gave a kcat/Km [15] of 9330 M⁻¹ s⁻¹, a kcat/Km [16] of 6330 M⁻¹ s⁻¹ and a Km [17] of 37 µM.

Molecule `CN1C(=O)N/C(=C/c2cccn2-c2ccc(C(=O)O)cc2)C1=O` has an inhibition [1] greater than 80% and an inhibition [10] of 51%.

For `Cc1c(OCc2nn[nH]n2)ccc2c3c(c(=O)oc12)CCCC3`, the Activity (HCC827-Luc [3]) was “inactive” and the Activity (NCI-H460-Luc [6]) was “inactive”.

For `Nc1ncnc2c1ncn2[C@@H]1O[C@H](COP(=O)(O)O)[C@@H](O)[C@H]1O`, the inhibition [9] was greater than 50%.

`Cc1c(OCC#N)ccc2c3c(c(=O)oc12)CCCC3` was tested, and the Activity (HCC827-Luc [3]) was “inactive” and the Activity (NCI-H460-Luc [6]) was “inactive”.

`O=C(O)c1ccc2[nH]c(-c3ccnc(-c4cccnc4)c3)nc2c1` was tested, and the inhibition [1] was greater than 80% and the inhibition [10] was 95%.

Molecule `CCOC(=O)c1c(C)sc(N)c1C(=O)OCC` has an inhibition [1] greater than 80%.

`O=C(O)c1ccc(/C=N/NC(=O)c2nc(-c3ccccc3)n(-c3ccccc3)n2)cc1` gave an inhibition [1] greater than 80%.

`O=C(Cn1cc([N+](=O)[O-])ccc1=O)NC(=O)NCc1ccco1` showed an inhibition [1] greater than 80% and an inhibition [10] of 59%.
